Results on 33 molecules are retold here after PubChem BioAssay (NCI).

Experiment in all cases: growth of human tumour cells (NCI), 48 h
In assay [1] the test system is DMS 273 small cell lung.
The test system of assay [2] is DLD-1 colon.
Assay [3] deals with LXFL 529 NSCLC.
Assay [4] relates to KM20L2 colon.
Assay [5] has as its system SNB-78 CNS.
For assay [6], the system named is HOP-18 NSCLC.
Assay [7] has as its system XF 498 CNS.
In assay [8] the test system is MDA-N.
In assay [9] the test system is RXF-631 renal.

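Each compound was tested at five concentrations against cells in 96-well plates for 48 hours. GI50 marks 50% less growth. TGI: total growth inhibition.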 Numbered stars: 1 amine (or outer) side, 2 acyl side, 3 side chain; on linkers, the order of the positions; unused ones are H or OH. Bridge positions count the residues as written; N and C are the ends. Square brackets hold non-standard residues; d marks the D form. Peptide text beside a SMILES is read from it. I, II: the chains in the order shown. Actinocin(1to9) = Cc1c2oc3c(C)ccc(C(=O)[*:2])c3nc-2c(C(=O)[*:1])c(N)c1=O; NMeY = CN[CH](Cc1ccc(O)cc1)C(=O)O; Sar = CNCC(=O)O A value given as a limit tells only on which side of the number the result lay.

As to `CCC[CH2][Sn]1([CH2]CCC)[S]CC[N]1S(=O)(=O)c1ccc(C)cc1`, the GI50 is 1.65 µM in assay [1], 1.58 µM in [2], 0.33 µM in assay [3] and 2.27 µM in assay [4]. The TGI in [1] amounted to 3.16 µM; in assay [2] it was 2.99 µM; in [3], 1.12 µM; in [4], 4.46 µM.

Consider `COc1ccc2c(c1)CN1CCc3c(cc(OC)c(OC)c3OC)C1C2` (centres undefined), for which the TGI in assay [5], in assay [6], in assay [1], in assay [2], in assay [7] and in [3] was greater than 100 µM each time. Moreover, the TGI in assay [4] is greater than 100 µM.

On to `C[C@H]1C=C2C(=O)O[C@H]3CC[C@@H](C1)[C@@]23O`, for which the TGI in [5] is 9.94 µM; in [6] it was 13.4 µM; in [2], 10.7 µM; in assay [3], 10.6 µM; in assay [4], 16.2 µM.

In the case of `O=C([O-])CC(=O)[O-].[NH-][C@@H]1CCCC[C@H]1[NH-].[Pt+4]`, the GI50 in [5] was greater than 100 µM; in assay [3], 25.2 µM; in assay [8], 19.9 µM. In addition, the TGI in [5], in [3], in assay [8] and in [4] was greater than 100 µM in each case.

Take `COC(=O)C1CCc2nnc(-c3ccccc3)n21` (centres undefined): the TGI in assay [5], in [2], in assay [7], in [3] and in assay [4] was greater than 100 µM each time.

In turn, `O=C(O)c1ccc(SSc2ccc(C(=O)O)cn2)nc1` yielded a TGI in assay [8] greater than 100 µM.

For the molecule `CC[PH+](CC)CC.[Cl][Au]`, the GI50 in [5] was 1.65 µM; in assay [6], 1.64 µM; in assay [1], 4.77 µM; in assay [2], 1.28 µM; in assay [7] it was 1.37 µM; in [3], 0.481 µM. In addition, in assay [4], the GI50 is 4.25 µM. The TGI in [5] was 5.93 µM; in assay [6], 3 µM; in [1], 22.1 µM; in assay [2] it was 2.93 µM; in [7], 2.67 µM; in assay [3] it was 1.07 µM. In assay [4], this molecule displayed a TGI of 8.73 µM.

Take `O=c1/c(=N\Nc2ccccc2)c2cccc3ccc4cccc1c4c32`: the TGI in assay [8] was greater than 100 µM.

For `C=C1C(OC(C)=O)CC(OC(C)=O)C2(C)C(OC(C)=O)C(OC(C)=O)C3=C(C)C(OC(=O)/C=C/c4ccccc4)CC(C(OC(C)=O)C12)C3(C)C` (centres undefined), the TGI in assay [5], in [6], in [1], in assay [2], in assay [3] and in assay [4] was greater than 100 µM throughout. In assay [9], the TGI is greater than 100 µM.

Molecule `CCOC(=O)/C=C/c1cccc(F)c1` returned a TGI in assay [8] greater than 100 µM.

`CC1=NOC(=O)/C1=C/c1ccc2c(c1)OCO2`: in [8], the TGI came out at 85.7 µM.

In the case of `CC1=CCCC2C(C=O)(C1)CC(C)C2(CO)CC/C(=C/CO)CO` (centres undefined), the TGI in [5], in [6], in [1], in assay [2], in assay [3] and in [9] was greater than 100 µM each time.

As to `COc1cc2cnc3c4cc(OCc5ccccc5)ccc4ccc3c2cc1OC`, the TGI in [5] is 65.4 µM; in assay [6], greater than 100 µM; in assay [2] it was greater than 100 µM; in assay [3], greater than 100 µM; in assay [4] it was greater than 100 µM; in [9], 98.8 µM.

Turning to `C[C@@H]1CC[C@@]2(NC1)O[C@H]1C[C@H]3[C@@H]4CC[C@H]5C[C@@H](O)CC[C@]5(C)[C@H]4CC[C@]3(C)[C@H]1[C@@H]2C`, in assay [8], the TGI was greater than 100 µM.

For the molecule `c1cncc(CSc2nc3ccccc3nc2-c2cccs2)c1`, the TGI in [5], in assay [6], in assay [1], in assay [2] and in [7] was greater than 100 µM throughout.

Consider `C1=CCCC=CCC1.C[PH+](C)C.C[PH+](C)C.C[PH+](C)C.[Cl-].[Ir]`, for which the GI50 in assay [5] is greater than 100 µM; in [6], greater than 100 µM; in [2], greater than 100 µM; in [3] it was 17.3 µM; in assay [4] it was greater than 100 µM. In addition, the TGI in assay [5] was greater than 100 µM; in assay [6] it was greater than 100 µM; in [2] it was greater than 100 µM; in [3], 62.2 µM; in [4] it was greater than 100 µM.

Consider `C[C@]12C[C@H](O)[C@H]3[C@@H](CCC4=CC(=O)CC[C@@]43C)[C@@H]1CC[C@@H]2c1csc(-c2ccccc2)n1`, for which the TGI in [8] was greater than 100 µM.

As for `O=C1Nc2cc(F)ccc2C1=O`, the TGI in assay [5], in assay [6], in assay [1], in assay [2], in assay [7] and in [3] was greater than 100 µM each time. In [4], this molecule returned a TGI greater than 100 µM.

Molecule `CN(N)c1nc(N)c(C#N)c(C#N)c1C#N` showed a TGI in assay [8] greater than 10 µM.

Consider `O/N=C/c1ccc(O)c(O)c1`, for which the TGI in [5], in assay [1], in [2], in assay [7], in assay [3] and in [4] was greater than 100 µM in each case.

As to `COc1cc(/C=N/N=C(\N)NO)c([N+](=O)[O-])cc1OC`, the TGI in assay [5], in assay [6], in assay [1], in assay [2], in [3] and in [4] was greater than 100 µM throughout. Further, in assay [9], the TGI was greater than 100 µM.

On to `Nc1ccc(/C=C/c2ccc3cccnc3c2)cc1`, for which the TGI in [8] is greater than 100 µM.

Consider `COc1ccc(-c2cc(=O)c3c(O)c(OC)c(OC)c(OC)c3o2)cc1`, for which, in assay [8], the TGI worked out at 13 µM.

For the molecule `COc1ccc2c(c1)CCc1c-2n[nH]c1-c1[nH]nc2c1CCc1cc(OC)ccc1-2`, the TGI in [5] was greater than 100 µM; in [6], 98.5 µM; in [1], 52.8 µM; in assay [2], greater than 100 µM; in assay [7] it was 71.2 µM; in [3], greater than 100 µM. This molecule had a TGI in [4] greater than 100 µM.

In the case of `COC(C)C(O)(C(=O)OCC1=CCN2CCC(O)C12)C(C)(C)O` (centres undefined), in [8], the TGI is greater than 100 µM.

On to `CCC(CO)Nc1nc2c(c(=O)n(C)c(=O)n2C)n1CCO` (centres undefined), for which the TGI in assay [5] was 53.5 µM; in assay [1] it was greater than 100 µM; in [3], greater than 100 µM; in [4] it was greater than 100 µM.

On to `Nc1c2ccccc2nc2c(C(=O)Nc3ccc(S(N)(=O)=O)cc3)cccc12`, for which the TGI in assay [5], in assay [1], in [2], in assay [7], in assay [3] and in assay [4] was greater than 100 µM in each case.

Take `COC(=O)CC[C@]12C[C@]13CC[C@]1(C)C4C(C)C[C@]5(CC(C)C(=O)O5)OC4CC1(C)C3CCC2C(C)(C)O` (some centres undefined): the TGI in assay [5] is greater than 100 µM; in assay [6] it was greater than 100 µM; in assay [1], greater than 100 µM; in [2] it was greater than 100 µM; in [7] it was 87.6 µM; in assay [3] it was greater than 100 µM. The molecule also had a TGI in assay [4] greater than 100 µM.

The molecule `COc1ccc(CC2C(=O)OC(C)C(NC(=O)c3c4nc5c(C(=O)NC6C(=O)NC(C(C)C)C(=O)N7CCCC7C(=O)N(C)CC(=O)N(C)C(Cc7ccc(OC)cc7)C(=O)OC6C)ccc(C)c5oc-4c(C)c(=O)c3N)C(=O)NC(C(C)C)C(=O)N3CCCC3C(=O)N(C)CC(=O)N2C)cc1` (centres undefined) (I: TVP[Sar][NMeY](Me) / II: TVP[Sar][NMeY](Me); ester I:1-I:C, II:1-II:C; linker I:N-II:N via Actinocin(1to9); configuration not given here) had a TGI in [8] of 0.218 µM.

With `CC(=O)[O-].N.N.N.N.[Co+3].[O-][Cl+3]([O-])([O-])[O-].[OH3+]`, the GI50 in [5], in [1], in [2], in [3] and in assay [4] was greater than 100 µM in each case. Also, the TGI in assay [5], in [1], in assay [2], in [3] and in assay [4] was greater than 100 µM throughout.

In the case of `C/C=C(\C)C(=O)OC1/C=C(\C)CC/C=C(\C)CC2OC(=O)C(C)(OC(C)=O)C12` (centres undefined), in assay [8], the TGI was greater than 100 µM.

On to `NC(=O)c1ccc(Cl)c([N+](=O)[O-])c1`, for which the TGI in assay [5], in assay [6], in assay [1], in [2], in assay [7] and in assay [3] was greater than 100 µM in each case. This molecule returned a TGI in assay [4] greater than 100 µM.

Regarding `C=C1C(=O)O[C@H]2C[C@@H]1C(=O)CC(C)CCCC(C)=CCC[C@@]2(C)O` (some centres undefined), the TGI in assay [8] is greater than 25 µM.
